Laboratory results from paper PMC10604444, “Extra-Synaptic GABAA Receptor Potentiation and Neurosteroid-Induced Learning Deficits Are Inhibited by GR3027, a GABAA Modulating Steroid Antagonist” (Biomolecules, 2023).

What was measured:
male Wistar rats = experiment: AP-induced loss of righting reflex (LoR); assay type: in vivo, rat
Text: Nanomolar concentrations of AP injected intravenously dramatically potentiate the GABA response at the GABAA receptor [1, 20]. […] Under normal circumstances, the righting reflex immediately corrects the orientation of the body when it is outside of its normal upright position, such as that of a rat that is placed on its side. When the rat is awake, it immediately turns around to be standing on its paws when dropped from a low distance above a surface. This ability can be lost with the injection of AP. Twelve male Wistar rats, with a weight of 267–307 g at the test occasion, were included in the study (Taconics, Denmark). The rats were housed at three animals per cage, with a normal day/night light cycle and ad libitum access to food and water (except during the short experiment, approximately 10 min). The week before the study, the animals were handled daily, to avoid stress during the experimental session. The handling included activities used during the test, i.e., holding, tail warming in water, and wrapping in op-blankets. AP (Umecrine AB) and GR3027 (Umecrine Cognition AB) were dissolved at a concentration of 2 mg/mL in 10% 2-hydroxypropyl-β-cyclodextrin (Sigma), respectively, by sonication. To measure the antagonism of AP-induced LoR, GR3027 was mixed with the AP solution at different ratios of AP to GR3027 1: 2.5–1:7.5. […]

[1] = target: T1, human α1β2γ2L GABAA receptors expressed in HEK-293 cells (Homo sapiens, UniProt P14867+P47870); experiment: Whole-cell patch clamp of GABA/THDOC-evoked currents, synaptic protocol (Dynaflow); assay type: cell-based; conditions: for Reduction of AUC of THDOC-induced GABA response: n = 8, p ≤ 0.05
T1 construct: The coding regions of the human GABAA receptor subunits were then amplified by PCR; expressed in transfected cells; host or cells: HEK-293 (permanently transfected, pcDNA3.1 vectors, CMV promoter)
Text: Wild-type HEK-293 cells (passage 4, originating from Pasteur Institute, Paris, France) were permanently transfected with vectors including the human CMV promoter for the constitutive expression of the human α5, β3, and γ2L GABAA receptor subunits (α5β3γ2L) or the human α1, β2, and γ2L GABAA receptor subunits (α1β2γ2L). The production of the plasmids used in the sub-cloning of the different subunits is published in Rahman et al..
The electrophysiological recordings from HEK-293 cells were performed with the whole-cell voltage clamp technique, at room temperature (21–23 °C). After compensation for liquid junction potential, a steady holding potential of −17 mV was used in all experiments. Patch pipettes were pulled from borosilicate glass (Bergman Labora AB, Danderyd, Sweden) and polished to a resistance of 2–5 MΩ when filled with intracellular solution and immersed in a bath (extracellular) solution (for solutions, see below). The pipette tips were filled by immersion in standard intracellular solution and subsequent back-filling with intracellular solution. The recordings were made using an Axopatch 200B amplifier and a Digidata 1322A (Axon Instruments, Foster City, CA, USA) controlled via a Pentium processor-based personal computer. Data were acquired using the pCLAMP software sampled at 10 kHz, filtered at 2–10 kHz, and analyzed with Clampfit (versions 9.0, both from Axon Instruments, Foster City, CA, USA). A series resistance between the pipette and cell membrane not higher than 20 MΩ was accepted. No series resistance compensation was used. The stability of series resistance was monitored repeatedly from the time course of capacitative transients during the experiments. The measured liquid junction potential between extracellular and intracellular solutions was subtracted from all data presented, as previously described. All experiments were performed at room temperature (21–23 °C).
In all electrophysiological experiments, tetrahydro-deoxycorticosterone (THDOC) was used as a positive GABAA receptor steroid modulator (PAM) to mimic the effect of AP on central GABAA channels. […] THDOC (Sigma Chemical Co., St. Louis, MO, USA) and GR3027 (3α-ethynyl, 3β-hydroxyl, 5α-androstan-17-oxime, golexanolone, Umecrine Cognition AB, Stockholm, Sweden) were dissolved in dimethyl sulfoxide (DMSO) using ultrasound, for the preparation of solutions containing a final DMSO concentration of 0.1%. GR3027 was discovered within a series of molecules developed and patented by T. Bäckström and G. Ragagnin, (patent WO 2008/063128). All solutions were complemented with DMSO to achieve the same final concentration as in the steroid-containing test solution. GABA (Sigma Chemical Co., St. Louis, MO, USA) was first prepared as a stock solution (dissolved in EC with ultrasonic treatment) to the desired concentrations, with the corresponding final concentrations of test solutions (30 µM and 0.3 µM; see protocols below). GABA was added to the experimental solution without a change in osmolarity.
The experimental protocols were designed to mimic the physiological conditions of the tonic (extra-synaptic) and phasic (synaptic) activation of GABAA receptors observed in central neurons, depending on the subunit compositions, respectively. GABA-evoked currents in HEK-293 cells expressing extra-synaptic (α5β3γ2L) or synaptic (α1β2γ2L) types of GABAA receptors were studied using the conventional whole-cell patch clamp technique. To mimic the physiological GABA exposure, the HEK-293 cells expressing α1β2γ2L GABAA receptors were exposed to short applications (40 ms) of 30 µM GABA, whereas HEK-293 cells expressing α5β3γ2L GABAA receptors were exposed to prolonged applications (6 s) of 0.3 µM GABA, either in the absence or presence of THDOC and/or GR3027.

T1 sequence (P14867 28-456): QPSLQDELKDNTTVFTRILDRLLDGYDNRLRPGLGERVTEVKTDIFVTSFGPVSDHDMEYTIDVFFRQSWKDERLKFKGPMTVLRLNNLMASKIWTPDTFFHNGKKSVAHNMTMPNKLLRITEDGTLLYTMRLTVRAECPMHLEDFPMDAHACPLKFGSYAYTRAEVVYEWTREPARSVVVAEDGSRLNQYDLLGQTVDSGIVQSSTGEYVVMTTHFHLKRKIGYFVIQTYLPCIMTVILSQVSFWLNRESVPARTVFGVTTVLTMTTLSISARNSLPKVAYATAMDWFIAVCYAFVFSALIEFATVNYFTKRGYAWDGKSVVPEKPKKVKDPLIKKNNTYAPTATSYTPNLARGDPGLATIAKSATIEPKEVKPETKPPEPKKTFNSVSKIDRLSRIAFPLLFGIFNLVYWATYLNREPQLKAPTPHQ
T1 sequence (P47870 25-512 limits assumed): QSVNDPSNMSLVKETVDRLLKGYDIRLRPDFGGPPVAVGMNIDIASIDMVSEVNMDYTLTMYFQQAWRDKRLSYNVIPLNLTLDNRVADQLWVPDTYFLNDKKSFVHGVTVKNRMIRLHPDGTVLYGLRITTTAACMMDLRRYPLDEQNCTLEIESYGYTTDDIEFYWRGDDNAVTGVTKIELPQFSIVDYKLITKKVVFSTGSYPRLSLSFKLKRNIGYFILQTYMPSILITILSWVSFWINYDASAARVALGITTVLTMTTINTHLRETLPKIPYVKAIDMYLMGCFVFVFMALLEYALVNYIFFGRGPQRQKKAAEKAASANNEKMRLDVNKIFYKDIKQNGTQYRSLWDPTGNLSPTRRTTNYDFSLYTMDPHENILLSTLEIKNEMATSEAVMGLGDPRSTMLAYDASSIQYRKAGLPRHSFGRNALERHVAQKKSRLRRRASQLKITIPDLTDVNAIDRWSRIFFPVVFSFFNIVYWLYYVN
T1 sequence (P18507 40-475 partner): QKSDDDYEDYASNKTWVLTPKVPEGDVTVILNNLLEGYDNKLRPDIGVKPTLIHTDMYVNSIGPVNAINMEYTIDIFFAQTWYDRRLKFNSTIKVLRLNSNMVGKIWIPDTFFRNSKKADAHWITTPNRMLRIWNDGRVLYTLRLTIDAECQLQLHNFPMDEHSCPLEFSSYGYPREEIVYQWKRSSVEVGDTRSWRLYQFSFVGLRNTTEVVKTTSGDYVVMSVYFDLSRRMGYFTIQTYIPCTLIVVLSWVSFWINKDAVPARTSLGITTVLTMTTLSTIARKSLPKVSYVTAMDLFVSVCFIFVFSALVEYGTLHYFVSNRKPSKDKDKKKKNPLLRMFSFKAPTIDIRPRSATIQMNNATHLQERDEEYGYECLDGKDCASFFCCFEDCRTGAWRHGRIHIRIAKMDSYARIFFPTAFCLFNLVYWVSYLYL

With `C#C[C@]1(O)CC[C@@]2(C)[C@@H](CC[C@@H]3[C@@H]2CC[C@]2(C)/C(=N/O)CC[C@@H]32)C1` [GR3027, 3α-ethynyl-3β-hydroxyl-5α-androstan-17-oxime] the “Dosage of GR3027 that antagonizes AP-induced loss of righting reflex” value (male Wistar rats; AP 2 mg/kg i.v., in 10% 2-hydroxypropyl-β-cyclodextrin) was 15 mg/kg, the “Effect on general condition of the rat” value (male Wistar rats; GR3027 15 mg/kg) was “did not affect the general condition” and the “Reduction of AUC of THDOC-induced GABA response” value ([1]; 1 µM GR3027 + 200 nM THDOC + 30 µM GABA (40 ms)) was −11.6 ± 3.1. The “Change of AUC of GABA-mediated current, GR3027 alone” value ([1]; 1 µM GR3027 + 30 µM GABA, no THDOC, NS, n = 21) was “–3.1 ± 1.7%”, the “Reduction of AUC of THDOC-induced GABA response” value ([1]; 3 µM GR3027 + 200 nM THDOC + 30 µM GABA (40 ms)) was −22.9 ± 2.8 and the “Decrease in THDOC-mediated baseline holding current shift” value ([1]; 3 µM GR3027, 200 nM THDOC, absence of GABA, n = 7, p ≤ 0.05) was −38.1 ± 7.6%. The “Effect on baseline holding current or 30 µM GABA-mediated currents, GR3027 alone” value ([1]; GR3027 alone, no THDOC) was “No difference” and the “Effect on THDOC-induced GABA currents at lower concentrations” value ([1]; GR3027 below 1 µM (tested from 0.1 µM), 200 nM THDOC + 30 µM GABA) was “no reduction”.
